Test system: ViroSTEM (mesenchymal stem cells into which measles virus has been introduced)
Assay: Viability of ViroSTEM cold-stored in 30% autologous serum-containing physiological saline treated with aspirin
Format: cell-based, human
Experimental: While ViroSTEM, which is mesenchymal stem cells into which measles virus has been introduced, was cold-stored in physiological saline containing aspirin and 30% autologous serum for 5 days, it was treated with aspirin at a concentration of 10 μg/ml to 100 μg/ml.
The period of time during which ViroSTEM cold-stored in physiological saline containing 50 μg/ml aspirin and 30% autologous serum was maintained as described above increased to 80 hours, indicating the stability of the virus in ViroSTEM cold-stored for 80 hours. After cold storage of ViroSTEM for 80 hours, the stem cells were cultured and then observed under a fluorescence microscope.

## CC(=O)Oc1ccccc1C(=O)O [aspirin]
Homo sapiens, Mesenchymal stem cells, 72 h, aspirin 50 μg/ml, cold storage 3 days in physiological saline containing 30% autologous serum, without aspirin about 28.6%, read-out: cell viability of measles virus-infected stem cell therapeutic agent
  viability at 50 µg/mL: ≥ 88%
Tested 10 μg/ml to 100 μg/ml in vehicle containing autologous serum
  most effective concentration of aspirin: 50 µg/mL
